Biological target: T1, hGluR1 flip (Homo sapiens, UniProt P42261)
T1 construct: expressed in transfected cells; host or cells: CHO-K1
Test: AMPA receptor function-enhancing activity using calcium influx as index
Format: cell-based
Details: test compound 30 μM with 3 mM glutamic acid; CHO-K1/GluR1 flip/stargazin-expressing cells; 100% = 3 mM glutamic acid + 300 μM cyclothiazide, 0% = 3 mM glutamic acid alone
Method in brief: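 CHO-K1 cells co-expressing human GluR1 flip and stargazin, loaded with Calcium5 dye with 1.25 mM probenecid. Test compound at 30 μM added with 3 mM glutamate; fluorescence followed 3 min. Activity % scaled between glutamate alone (0%) and glutamate plus 300 μM cyclothiazide (100%).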

T1 sequence (P42261 19-906 isoform P42261-2 limits assumed): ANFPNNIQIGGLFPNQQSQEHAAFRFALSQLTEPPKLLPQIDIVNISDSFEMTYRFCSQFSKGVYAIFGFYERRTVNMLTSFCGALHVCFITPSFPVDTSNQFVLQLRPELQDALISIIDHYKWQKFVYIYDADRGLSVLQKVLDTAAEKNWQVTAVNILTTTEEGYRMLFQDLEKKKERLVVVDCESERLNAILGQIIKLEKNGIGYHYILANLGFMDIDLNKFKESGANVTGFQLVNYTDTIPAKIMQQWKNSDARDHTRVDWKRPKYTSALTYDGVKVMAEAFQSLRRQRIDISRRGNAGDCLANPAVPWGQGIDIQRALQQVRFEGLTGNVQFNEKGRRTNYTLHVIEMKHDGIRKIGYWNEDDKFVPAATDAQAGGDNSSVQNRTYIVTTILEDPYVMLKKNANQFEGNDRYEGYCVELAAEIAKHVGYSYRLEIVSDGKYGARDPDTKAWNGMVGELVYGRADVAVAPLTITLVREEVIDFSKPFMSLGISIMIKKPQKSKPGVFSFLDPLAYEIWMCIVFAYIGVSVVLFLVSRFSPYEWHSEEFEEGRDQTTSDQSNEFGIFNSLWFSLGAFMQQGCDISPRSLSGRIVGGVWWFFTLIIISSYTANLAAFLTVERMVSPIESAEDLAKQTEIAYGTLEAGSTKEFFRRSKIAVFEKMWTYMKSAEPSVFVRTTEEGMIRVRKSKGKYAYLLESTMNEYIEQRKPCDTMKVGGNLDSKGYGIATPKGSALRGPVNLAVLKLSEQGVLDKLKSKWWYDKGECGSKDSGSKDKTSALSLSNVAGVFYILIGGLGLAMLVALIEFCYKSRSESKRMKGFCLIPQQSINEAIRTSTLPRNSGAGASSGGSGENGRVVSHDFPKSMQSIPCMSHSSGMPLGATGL
T1 sequence (Q9Y698 whole entry partner): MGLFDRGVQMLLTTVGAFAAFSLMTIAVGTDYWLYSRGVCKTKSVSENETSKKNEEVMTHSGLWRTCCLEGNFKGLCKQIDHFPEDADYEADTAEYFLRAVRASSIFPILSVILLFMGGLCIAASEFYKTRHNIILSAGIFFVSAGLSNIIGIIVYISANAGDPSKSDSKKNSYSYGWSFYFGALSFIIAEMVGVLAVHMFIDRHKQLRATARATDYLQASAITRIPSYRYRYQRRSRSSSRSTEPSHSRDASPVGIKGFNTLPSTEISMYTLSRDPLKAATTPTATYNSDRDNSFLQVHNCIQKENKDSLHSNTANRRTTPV

Structure (SMILES) | activation at 30 µM [%] | hGluR1 flip/30 μM (%)
Cc1c(C(F)(F)F)nc2c(-c3ccc(C(=O)N4CCOCC4)cc3)cccn2c1=O [Example 37, 3-methyl-9-(4-(morpholin-4-ylcarbonyl)phenyl)-2-(trifluoromethyl)-4H-pyrido[1,2-a]pyrimidin-4-one] | 74.9 | 
O=C(NCC(F)(F)F)c1ccc(-c2cccn3c(=O)c(Cl)c(C(F)(F)F)nc23)cc1 [Example 35, 4-(3-chloro-4-oxo-2-(trifluoromethyl)-4H-pyrido[1,2-a]pyrimidin-9-yl)-N-(2,2,2-trifluoroethyl)benzamide] | 79.8 | 
CCC1(O)CCN(C(=O)c2ccc(-c3cccn4c(=O)cc(C(F)(F)F)nc34)cc2)CC1 [Example 8, 9-(4-((4-ethyl-4-hydroxypiperidin-1-yl)carbonyl)phenyl)-2-(trifluoromethyl)-4H-pyrido[1,2-a]pyrimidin-4-one] | 79.6 | 
COC1CCN(C(=O)c2ccc(-c3cccn4c(=O)cc(C(F)(F)F)nc34)cc2F)CC1 [Example 89, 9-(3-fluoro-4-((4-methoxypiperidin-1-yl)carbonyl)phenyl)-2-(trifluoromethyl)-4H-pyrido[1,2-a]pyrimidin-4-one] | 82.8 | 
Cc1c(C(F)(F)F)nc2c(-c3ccc(C(=O)N4CC(F)(F)C4)cc3)cccn2c1=O [Example 24, 9-(4-((3,3-difluoroazetidin-1-yl)carbonyl)phenyl)-3-methyl-2-(trifluoromethyl)-4H-pyrido[1,2-a]pyrimidin-4-one] | 76.9 | 
Cc1c(C(F)(F)F)nc2c(-c3ccc(C(=O)N4CCc5cccnc54)c(F)c3)cccn2c1=O [Example 80, 9-(4-(2,3-dihydro-1H-pyrrolo[2,3-b]pyridin-1-ylcarbonyl)-3-fluorophenyl)-3-methyl-2-(trifluoromethyl)-4H-pyrido[1,2-a]pyrimidin-4-one] | 90.6 | 
Cc1c(C(F)(F)F)nc2c(-c3ccc(C(=O)N4CCCOCC4)c(F)c3)cccn2c1=O [Example 76, 9-(3-fluoro-4-(1,4-oxazepan-4-ylcarbonyl)phenyl)-3-methyl-2-(trifluoromethyl)-4H-pyrido[1,2-a]pyrimidin-4-one] | 93.3 | 
O=C(c1ccc(-c2cccn3c(=O)c(Br)c(C(F)(F)F)nc23)cc1F)N1CCCOCC1 [Example 75, 3-bromo-9-(3-fluoro-4-(1,4-oxazepan-4-ylcarbonyl)phenyl)-2-(trifluoromethyl)-4H-pyrido[1,2-a]pyrimidin-4-one] | 99.1 | 
O=C(NCC(F)F)c1ccc(-c2cccn3c(=O)cc(C(F)(F)F)nc23)cc1F [Example 42] | 83.6 | 
O=C(c1ccc(-c2cccn3c(=O)c(Br)c(C(F)(F)F)nc23)cc1)N1CCOC2CC21 (stereo not drawn) [Example 127, 3-bromo-9-(4-(2-oxa-5-azabicyclo[4.1.0]hept-5-ylcarbonyl)phenyl)-2-(trifluoromethyl)-4H-pyrido[1,2-a]pyrimidin-4-one] | 74.7 | 
C[C@@H]1CN(C(=O)c2ccc(-c3cccn4c(=O)c(Br)c(C(F)(F)F)nc34)cc2)CCO1 [Example 49, 3-bromo-9-(4-(((2R)-2-methylmorpholin-4-yl)carbonyl)phenyl)-2-(trifluoromethyl)-4H-pyrido[1,2-a]pyrimidin-4-one] | 71.6 | 
C[C@H]1CN(C(=O)c2ccc(-c3cccn4c(=O)c(Br)c(C(F)(F)F)nc34)cc2F)CCO1 [Example 73, 3-bromo-9-(3-fluoro-4-(((2S)-2-methylmorpholin-4-yl)carbonyl)phenyl)-2-(trifluoromethyl)-4H-pyrido[1,2-a]pyrimidin-4-one] | 87.9 | 
CN(CCC#N)C(=O)c1ccc(-c2cccn3c(=O)c(Br)c(C(F)(F)F)nc23)cc1 [Example 99, 4-(3-bromo-4-oxo-2-(trifluoromethyl)-4H-pyrido[1,2-a]pyrimidin-9-yl)-N-(2-cyanoethyl)-N-methylbenzamide] | 76.9 | 
O=C(c1ccc(-c2cccn3c(=O)c(Br)c(C(F)(F)F)nc23)cc1)N1CCOC(C(F)F)C1 (stereo not drawn) [Example 113, 3-bromo-9-(4-((2-(difluoromethyl)morpholin-4-yl)carbonyl)phenyl)-2-(trifluoromethyl)-4H-pyrido[1,2-a]pyrimidin-4-one] |  | 78.7
O=C(c1ccc(-c2cccn3c(=O)cc(C(F)(F)F)nc23)cc1)N1CCC(O)(C(F)(F)F)C1 (stereo not drawn) [Example 15, 9-(4-((3-hydroxy-3-(trifluoromethyl)pyrrolidin-1-yl)carbonyl)phenyl)-2-(trifluoromethyl)-4H-pyrido[1,2-a]pyrimidin-4-one] | 79.9 | 
O=C(c1ccc(-c2cccn3c(=O)c(Br)c(C(F)(F)F)nc23)cc1)N1CCOCC(F)(F)C1 [Example 119, 3-bromo-9-(4-((6,6-difluoro-1,4-oxazepan-4-yl)carbonyl)phenyl)-2-(trifluoromethyl)-4H-pyrido[1,2-a]pyrimidin-4-one] | 71 | 
CN(CCC#N)C(=O)c1ccc(-c2cccn3c(=O)c(Cl)c(C(F)(F)F)nc23)cc1 [Example 39, 4-(3-chloro-4-oxo-2-(trifluoromethyl)-4H-pyrido[1,2-a]pyrimidin-9-yl)-N-(2-cyanoethyl)-N-methylbenzamide] | 85.9 | 
O=C(c1ccc(-c2cccn3c(=O)cc(C(F)(F)F)nc23)cc1)N1CCC(O)(C(F)(F)F)CC1 [Example 33, 9-(4-((4-hydroxy-4-(trifluoromethyl)piperidin-1-yl)carbonyl)phenyl)-2-(trifluoromethyl)-4H-pyrido[1,2-a]pyrimidin-4-one] | 79.4 | 
O=C(NCC(F)(F)F)c1ccc(-c2cccn3c(=O)cc(C(F)(F)F)nc23)cc1F [Example 43, 2-fluoro-4-(4-oxo-2-(trifluoromethyl)-4H-pyrido[1,2-a]pyrimidin-9-yl)-N-(2,2,2-trifluoroethyl)benzamide] | 84.1 | 
Cc1c(C(F)(F)F)nc2c(-c3ccc(C(=O)NC4CCOCC4)cc3)cccn2c1=O [Example 125, 4-(3-methyl-4-oxo-2-(trifluoromethyl)-4H-pyrido[1,2-a]pyrimidin-9-yl)-N-(tetrahydro-2H-pyran-4-yl)benzamide] | 86.7 | 
O=C(NC1CCOCC1)c1ccc(-c2cccn3c(=O)c(Br)c(C(F)(F)F)nc23)cc1F [Example 124, 4-(3-bromo-4-oxo-2-(trifluoromethyl)-4H-pyrido[1,2-a]pyrimidin-9-yl)-2-fluoro-N-(tetrahydro-2H-pyran-4-yl)benzamide] | 86.3 | 
O=C(c1ccc(-c2cccn3c(=O)c(Br)c(C(F)(F)F)nc23)cc1)N1CCC1 [Example 61, 9-(4-(azetidin-1-ylcarbonyl)phenyl)-3-bromo-2-(trifluoromethyl)-4H-pyrido[1,2-a]pyrimidin-4-one] | 77.1 | 
Cc1c(C(F)(F)F)nc2c(-c3ccc(C(=O)N4CCOCC4)c(F)c3)cccn2c1=O [Example 45, 9-(3-fluoro-4-(morpholin-4-ylcarbonyl)phenyl)-3-methyl-2-(trifluoromethyl)-4H-pyrido[1,2-a]pyrimidin-4-one] | 82.6 | 
O=C(N[C@H]1CCOC1)c1ccc(-c2cccn3c(=O)c(Br)c(C(F)(F)F)nc23)cc1 [Example 55, 4-(3-bromo-4-oxo-2-(trifluoromethyl)-4H-pyrido[1,2-a]pyrimidin-9-yl)-N-((3S)-tetrahydrofuran-3-yl)benzamide] | 75.1 | 
N#CC1CCCN(C(=O)c2ccc(-c3cccn4c(=O)c(Cl)c(C(F)(F)F)nc34)cc2)C1 (stereo not drawn) [Example 38, 1-(4-(3-chloro-4-oxo-2-(trifluoromethyl)-4H-pyrido[1,2-a]pyrimidin-9-yl)benzoyl)piperidine-3-carbonitrile] | 99.3 | 
Cc1c(C(F)(F)F)nc2c(-c3ccc(C(=O)N4CCOC(C(F)F)C4)cc3)cccn2c1=O (stereo not drawn) [Example 106, 9-(4-((2-(difluoromethyl)morpholin-4-yl)carbonyl)phenyl)-3-methyl-2-(trifluoromethyl)-4H-pyrido[1,2-a]pyrimidin-4-one] |  | 85.9
CN(CC(F)F)C(=O)c1ccc(-c2cccn3c(=O)cc(C(F)(F)F)nc23)cc1 [Example 2, N-(2,2-difluoroethyl)-N-methyl-4-(4-oxo-2-(trifluoromethyl)-4H-pyrido[1,2-a]pyrimidin-9-yl)benzamide] | 103 | 

Reference: patent US11407748B2, “Substituted pyrido[1,2-a]pyrimidines and pyrazino[1,2-a]pyrimidines for enhancing AMPA receptor function” (Takeda Pharmaceutical Company Limited, priority 2017, dated 2022)
